Measurements published in US20040009464A1, “Methods for identifying compounds for inhibition of neoplastic lesions, and pharmacetical compositions containing such compounds” (priority 1998, published 2004).
Counter-ions that a name gives are not always drawn. Like-named read-outs stand apart in the source and are kept apart here.

Columns and labels:
[1] = Single, escalating dose human safety study; assay type: in vivo; conditions: oral
MDA-MB-231 = test: Growth inhibition, neutral red assay, MDA-MB-231; assay type: cell-based, human; conditions: free base, five days
Method: (§1) Compound I's activity is not confined to activity against colon cancer cell lines or animal models of colon cancer. It has a broad range of anti-neoplastic effects in various neoplastic cell lines. Various types of human cancer cell lines were propagated under sterile conditions in RPMI 1640 medium with 10% fetal bovine serum, […] L-glutamine and sodium bicarbonate. To determine growth inhibitory effects of Compound I, cells were seeded in 96-well plates at a density of 1000 cells per well. Twenty-four hours after plating, the cells were dosed with various concentrations of the free base of Compound I solubilized in DMSO (final concentration 0.1%). The effect of the drug on tumor cell growth was determined using the neutral red cytotoxicity assay following five days of continuous treatment. Neutral red is a dye that is selectively taken up by viable cells by an ATP-dependent transport mechanism.

[2] = Seven-day dose-range finding study in rats; assay type: in vivo; conditions: seven days
PC-3 = test: Growth inhibition, neutral red assay, PC-3; assay type: cell-based, human; conditions: free base, five days
Method: as §1

[3] = rat, in vivo
[4] = dog, in vivo
[5] = system: PrEC primary prostate epithelial cells derived from normal prostate; test: Histone-associated DNA fragmentation in PrEC cells; assay type: cell-based; conditions: 50 μM, up to 4 days
Method: (§2) The androgen-sensitive prostate tumor cell line, LNCAP (from ATCC (Rockville, Md.)) was propagated under standard conditions using […] medium containing 5% fetal calve serum and 2 mM glutamine. Primary prostate epithelial cell cultures (PrEC) derived from normal prostate (from Clonetics Inc. (San Diego, Calif.)) were grown under the same conditions as the tumor cell line except a serum-free medium optimized for the growth of such cultures was used (Clonetics Inc). For the experiments, LNCaP or PrEC cells were seeded in 96 well plates at a density of 10,000 cells per well. After 24 hours, the cells were treated with either vehicle (0.1% DMSO) or 50 μM Compound I (freebase) solubilized in DMSO. After various drug treatment times (4, 24, 48, 72, or 99 hours) the cells were lysed and processed for measurement of histone-associated DNA as an indicator of apoptotic cell death (see, Piazza et al., Cancer Research 57: 2452-2459, 1997).
(§3) This is in marked contrast to conventional chemotherapeutics that induce apoptosis or necrosis in rapidly growing normal and neoplastic cells alike.

[6] = system: LNCaP prostate tumor cell line; test: Histone-associated DNA fragmentation in LNCaP cells; assay type: cell-based; conditions: 50 μM free base, up to 4 days
Method: as §2, §3

NCI-H322M = test: Growth inhibition, neutral red assay, NCI-H322M; assay type: cell-based, human; conditions: free base, five days
Method: as §1

[7] = system: aberrant crypt foci (AOM-induced carcinogenesis); test: Azoxymethane-induced aberrant crypt foci (ACF) model in rats; assay type: in vivo, male Fisher 344 rats; conditions: for Mean ACF/colon (+SE): free base, 5 weeks
Method: The growth inhibition IC50 value obtained for Compound I was 0.7 μM in the SW-480 cell line. […] This established rodent model of azoxymethane (“AOM”)-induced carcinogenesis was used to assess the effects of Compound I (free base and salt) on colon cancer development in vivo. ACF are precursors to colonic tumors, and ACF inhibition is predictive of chemo-preventive efficacy.
In the rats in this experiment, ACF initiation was achieved by two consecutive weekly injections of the carcinogen. Compound I was administered one week prior to ACF initiation and for the duration of the experiment. ACFs were scored after 5 weeks of treatment. Compound I was administered orally to male Fisher 344 rats in the rat chow. Daily food consumption (mg/kg body weight) varied over the course of the study, and therefore Compound I dose was expressed a grams per kg of diet to provide a basis of comparison between doses. […] The experimental groups gained less weight than the controls, which was indicative of bloavailability. However, the weight differences were less than 10% and not considered to affect ACF formation.
The free base of Compound I inhibited ACF formation as measured by a reduction of crypts per colon. With the exception of the low dose group (only 0.5 g/kg diet), the differences between treatment and control groups were substantial, and statistically significant in the case of the 1.0 and 2.0 g/kg diet group.

28-day study in rats = assay type: in vivo

## CC1=C(CC(=O)NCc2ccccc2)c2cc(F)ccc2/C1=C\c1ccncc1 [Compound I, (Z)-5-fluoro-2-methyl-(4-pyridylidene)-3-(N-benzyl)indenylacetamide hydrochloride]
[1]
  side effects: no significant side effects at any dose
MDA-MB-231
  GI90 μM MDA-MB-231: 77.6 µM
[2]; 50 mg/kg/day
  toxicity findings: no observable signs of toxicity
[2]; 500 mg/kg/day
  toxicity findings: an increase in absolute and relative liver weights in female rats
[2]; 2000 mg/kg/day
  toxicity findings: labored breathing and/or abnormal respiratory sounds, decreased weights gains and food consumption in male rats, and increased liver weights in female rats
PC-3
  GI90 μM PC-3: 82.5 µM
[3]; ip, 1000 mg/kg
  toxicity findings: reduced body weight gain, with mesenteric adhesions seen in some animals
[3]; po, 4000 mg/kg
  body weight gain: body weight gains were slightly reduced
[4]; 1000 mg/kg
  signs of toxicity: no signs of toxicity
[4]; 1000 mg/kg/day
  drug-related effects: At no time in either dosing phase were any obvious signs of drug-related effects observed
[5]
  DNA fragmentation: did not affect DNA fragmentation
[6]
  histone-associated fragmented DNA: significant increase in fragmented DNA
NCI-H322M
  GI90 μM NCI-H322M: 13.2 µM
[7]; 0.5 g/kg diet
  Mean ACF/colon (+SE): 149 ± 14 ACF/colon
[7]; 1 g/kg diet
  Mean ACF/colon (+SE): 111 ± 9 ACF/colon
[7]; 1.5 g/kg diet
  Mean ACF/colon (+SE): 132 ± 4 ACF/colon
[7]; 2.0 g/kg diet
  Mean ACF/colon (+SE): 107 ± 15 ACF/colon
[7]; rats, compound in chow
  body weight difference versus controls: less than 10%
28-day study in rats; 28 days, 2000 mg/kg/day
  organ weights: statistically significant increase in liver weights
28-day study in rats; 28 days, 50, 500 and 2000 mg/kg/day
  clinical observations: no abnormal clinical observations
